Results: PubChem BioAssay AID330 (DTP/NCI, 2004)
Several values for one entry are separate records, joined by “and”; a condition that tells them apart may be missing. Equal values may be shown once. Inconclusive results and toxic doses are left out. How the source made its calls: active means survival T/C of 150% or more; inactive means T/C below 125% in these data.

Test system: P388 leukemia ip, CD2F1 mice, survival T/C
Assay: NCI In Vivo Anticancer Drug Screen. Data for tumor model P388 Leukemia (intraperitoneal) in CD2F1 (CDF1) mice
Conditions: endpoint: median survival time, higher = longer survival
In short: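 Mice carrying the transplanted tumor received test compound or vehicle. Survival was recorded in each group, and the value is the treated-group measurement divided by that of the vehicle-treated control group.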

[1] = dose: 50.0 mg/kg/injection, schedule: Q01DX005 (ip), vehicle: saline with Tween-80
[2] = dose: 100.0 mg/kg/injection, schedule: Q01DX005 (ip), vehicle: saline with Tween-80
[3] = dose: 200.0 mg/kg/injection, schedule: Q01DX005 (ip), vehicle: saline with Tween-80
[4] = dose: 50.0 mg/kg/injection, schedule: Q01DX009 (ip), vehicle: saline with Tween-80
[5] = dose: 100.0 mg/kg/injection, schedule: Q01DX009 (ip), vehicle: saline with Tween-80
[6] = dose: 200.0 mg/kg/injection, schedule: Q01DX009 (ip), vehicle: saline with Tween-80
[7] = dose: 50.0 mg/kg/injection, schedule: Q01DX005 (ip), vehicle: saline
[8] = dose: 100.0 mg/kg/injection, schedule: Q01DX005 (ip), vehicle: saline
[9] = dose: 50.0 mg/kg/injection, schedule: Q01DX005 (ip), vehicle: Klucel (hydroxypropylcellulose) (HPC)
[10] = dose: 100.0 mg/kg/injection, schedule: Q01DX005 (ip), vehicle: Klucel (hydroxypropylcellulose) (HPC)
[11] = dose: 50.0 mg/kg/injection, schedule: Q01DX009 (ip), vehicle: Klucel (hydroxypropylcellulose) (HPC)
[12] = dose: 100.0 mg/kg/injection, schedule: Q01DX009 (ip), vehicle: Klucel (hydroxypropylcellulose) (HPC)
[13] = dose: 200.0 mg/kg/injection, schedule: Q01DX009 (ip), vehicle: Klucel (hydroxypropylcellulose) (HPC)
[14] = dose: 12.5 mg/kg/injection, schedule: Q01DX009 (ip), vehicle: saline with Tween-80
[15] = dose: 25.0 mg/kg/injection, schedule: Q01DX009 (ip), vehicle: saline with Tween-80
[16] = dose: 100.0 mg/kg/injection, schedule: Q04DX003 (ip), vehicle: saline with Tween-80
[17] = dose: 12.5 mg/kg/injection, schedule: Q01DX009 (ip), vehicle: Klucel (hydroxypropylcellulose) (HPC)
[18] = dose: 25.0 mg/kg/injection, schedule: Q01DX009 (ip), vehicle: Klucel (hydroxypropylcellulose) (HPC)

Measured: T/C

NNC(=O)c1c(O)ccc2ccccc12
inactive: [1] 95 % of control | [2] 93 % of control | [3] 100 % of control

O=C(O)CC1(c2ccccc2)CCCCC1
inactive: [4] 103 % of control | [5] 100 % of control | [6] 102 % of control

CC(N)/C(N)=N/O (stereo not drawn)
inactive: [7] 99 % of control | [8] 100 % of control | dose: 200.0 mg/kg/injection, schedule: Q01DX005 (ip), vehicle: saline 110 % of control

Cc1cc2c(oc(=O)c3cc(C)sc32)s1
inactive: [9] 99 % of control | [10] 103 % of control | dose: 200.0 mg/kg/injection, schedule: Q01DX005 (ip), vehicle: Klucel (hydroxypropylcellulose) (HPC) 97 % of control

O=NNc1cncc(Sc2ccccc2)n1
inactive: dose: 3.12 mg/kg/injection, schedule: Q01DX009 (ip), vehicle: water 97 % of control | dose: 6.25 mg/kg/injection, schedule: Q01DX009 (ip), vehicle: water 94 % of control | dose: 12.5 mg/kg/injection, schedule: Q01DX009 (ip), vehicle: water 101 % of control | dose: 25.0 mg/kg/injection, schedule: Q01DX008 (ip), vehicle: water 116 % of control | dose: 25.0 mg/kg/injection, schedule: Q01DX009 (ip), vehicle: water 107 % of control | dose: 50.0 mg/kg/injection, schedule: Q01DX008 (ip), vehicle: water 120 % of control | dose: 50.0 mg/kg/injection, schedule: Q01DX009 (ip), vehicle: water 92 % of control

CC(C)(C)c1cc(CCc2nc(CCc3cc(C(C)(C)C)c(O)c(C(C)(C)C)c3)nc(CCc3cc(C(C)(C)C)c(O)c(C(C)(C)C)c3)n2)cc(C(C)(C)C)c1O
inactive: [11] 92 % of control | [12] 88 % of control | [13] 93 % of control

O=[N+]([O-])c1ccccc1O
inactive: [14] 109 % of control | [15] 113 % of control | [4] 109 % of control | [16] 105 % of control | dose: 200.0 mg/kg/injection, schedule: Q04DX003 (ip), vehicle: saline with Tween-80 110 % of control | dose: 400.0 mg/kg/injection, schedule: Q04DX003 (ip), vehicle: saline with Tween-80 105 % of control

Cc1cc2c(c3c1C(=O)CC3)C(C)(C)CCC2(C)C
inactive: [1] 99 % of control | [2] 97 % of control | [3] 95 % of control

NCCCNCCCCNC(=O)C(O)NC(=O)CC(O)CCCCN=C(N)N (stereo not drawn)
active: dose: 6.25 mg/kg/injection, schedule: Q01DX005 (ip), vehicle: saline 152 % of control | dose: 25.0 mg/kg/injection, schedule: Q01DX005 (ip), vehicle: saline 160 % of control | [7] 150 % of control and 154 % of control | [8] 156 % of control and 169 % of control

O=C(Cn1c(=O)sc2ccc(Cl)cc21)N1CCN(CCO)CC1
inactive: dose: 25.0 mg/kg/injection, schedule: Q01DX009 (ip), vehicle: saline 105 % of control | dose: 50.0 mg/kg/injection, schedule: Q01DX009 (ip), vehicle: saline 105 % of control | dose: 100.0 mg/kg/injection, schedule: Q01DX009 (ip), vehicle: saline 99 % of control | dose: 200.0 mg/kg/injection, schedule: Q01DX009 (ip), vehicle: saline 94 % of control

O=C1C=CC(=O)N1c1ccc(I)cc1Cl
inactive: [4] 106 % of control | [5] 104 % of control | [6] 96 % of control

O=C1/C(=C\c2ccccc2)C/C1=C\c1ccccc1
inactive: dose: 100.0 mg/kg/injection, schedule: Q04DX003 (ip), vehicle: Klucel (hydroxypropylcellulose) (HPC) 97 % of control | dose: 200.0 mg/kg/injection, schedule: Q04DX003 (ip), vehicle: Klucel (hydroxypropylcellulose) (HPC) 100 % of control | dose: 400.0 mg/kg/injection, schedule: Q04DX003 (ip), vehicle: Klucel (hydroxypropylcellulose) (HPC) 95 % of control

CCCCCCOCC(=O)O
inactive: [4] 102 % of control | [5] 91 % of control

CC(C)C(N)C(=O)O (stereo not drawn)
inactive: [11] 100 % of control | [12] 100 % of control | [13] 91 % of control

C/C(=C\C=C/c1ccoc1)C(=O)c1cc(C)co1
inactive: dose: 6.25 mg/kg/injection, schedule: Q01DX009 (ip), vehicle: Klucel (hydroxypropylcellulose) (HPC) 106 % of control | [17] 103 % of control and 95 % of control | [18] 106 % of control and 96 % of control | [11] 115 % of control and 96 % of control | [12] 104 % of control

CN=C(Nc1ccccn1)c1ccc(NC(=O)c2ccc(C(=O)Nc3ccc(C(=NC)Nc4ccccn4)cc3)cc2)cc1
inactive: [9] 107 % of control | [10] 110 % of control

ClCC1CSC(c2ccccc2)O1 (stereo not drawn)
inactive: [4] 90 % of control | [5] 109 % of control | [6] 101 % of control

CC(=O)Oc1ccc2c(c1)C(=O)CCCCCCC(=O)O2
inactive: dose: 100.0 mg/kg/injection, schedule: Q01DX001 (ip), vehicle: saline 101 % of control | dose: 200.0 mg/kg/injection, schedule: Q01DX001 (ip), vehicle: saline 95 % of control | dose: 400.0 mg/kg/injection, schedule: Q01DX001 (ip), vehicle: saline 105 % of control

COC(=O)C1=CO[C@@H](OC2OC(CO)C(O)C(O)C2O)[C@@H]2[C@@H](CO)[C@@H](O)[C@@H](OC(=O)/C=C/c3ccc(O)c(O)c3)[C@H]12 (stereo partly drawn)
inactive: dose: 7.25 mg/kg/injection, schedule: Q01DX005 (ip), vehicle: saline + alcohol 106 % of control | dose: 14.5 mg/kg/injection, schedule: Q01DX005 (ip), vehicle: saline + alcohol 107 % of control | dose: 29.0 mg/kg/injection, schedule: Q01DX005 (ip), vehicle: saline + alcohol 109 % of control | dose: 58.0 mg/kg/injection, schedule: Q01DX005 (ip), vehicle: saline + alcohol 113 % of control

O=C(NN=C1c2ccccc2-c2ccccc21)Nc1ccccc1
inactive: [4] 95 % of control | [5] 96 % of control | [6] 96 % of control

CC1OC(OC2C(Oc3cc(O)c4c(=O)cc(-c5ccc(OC6OC(CO)C(O)C(O)C6OC6OC(C)C(O)C(O)C6O)c(O)c5)oc4c3)OC(CO)C(O)C2O)C(O)C(O)C1O (stereo not drawn)
inactive: dose: 3.0 mg/kg/injection, schedule: Q01DX009 (ip), vehicle: Klucel (hydroxypropylcellulose) (HPC) 106 % of control | dose: 6.0 mg/kg/injection, schedule: Q01DX009 (ip), vehicle: Klucel (hydroxypropylcellulose) (HPC) 95 % of control | dose: 12.0 mg/kg/injection, schedule: Q01DX009 (ip), vehicle: Klucel (hydroxypropylcellulose) (HPC) 93 % of control | dose: 24.0 mg/kg/injection, schedule: Q01DX009 (ip), vehicle: Klucel (hydroxypropylcellulose) (HPC) 95 % of control

O/N=C1\CCCCC1C(O)c1c(Cl)cccc1Cl (stereo not drawn)
inactive: [4] 102 % of control | [5] 103 % of control | [6] 96 % of control

c1ccc2c(c1)cnc1c3ccccc3nn21
inactive: [11] 102 % of control | [12] 96 % of control | [13] 103 % of control

COc1ccc2nc(N)sc2c1
inactive: [17] 97 % of control | [14] 111 % of control | [18] 99 % of control | [15] 111 % of control | [11] 107 % of control | [4] 120 % of control | [12] 107 % of control

CN1COc2c(n(C)c(=O)[nH]c2=O)C1
inactive: [7] 102 % of control and 106 % of control | [8] 114 % of control and 115 % of control

CSC(=Nc1cccnc1)NC#N
inactive: [11] 96 % of control | [12] 93 % of control | [13] 92 % of control

O=C(/C=C\c1ccc(NCc2ccc(C(=O)O)cc2)cc1)CCl
inactive: [15] 122 % of control | dose: 25.0 mg/kg/injection, schedule: Q04DX003 (ip), vehicle: saline with Tween-80 100 % of control | [4] 122 % of control | dose: 50.0 mg/kg/injection, schedule: Q04DX003 (ip), vehicle: saline with Tween-80 104 % of control | [16] 109 % of control

C=CC(C1=CC(=O)C(OC)=CC1=O)c1ccccc1 (stereo not drawn)
inactive: dose: 2.5 mg/kg/injection, schedule: Q01DX009 (ip), vehicle: saline with Tween-80 101 % of control | dose: 5.0 mg/kg/injection, schedule: Q01DX009 (ip), vehicle: saline with Tween-80 103 % of control | dose: 10.0 mg/kg/injection, schedule: Q01DX009 (ip), vehicle: saline with Tween-80 102 % of control

C=C(C)C1C2CC3(C)C4(CO4)C4OC4C3(O)C1C(=O)O2 (stereo not drawn)
inactive: dose: 0.31 mg/kg/injection, schedule: Q01DX005 (ip), vehicle: Klucel (hydroxypropylcellulose) (HPC) 97 % of control | dose: 0.62 mg/kg/injection, schedule: Q01DX005 (ip), vehicle: Klucel (hydroxypropylcellulose) (HPC) 100 % of control | dose: 1.25 mg/kg/injection, schedule: Q01DX005 (ip), vehicle: Klucel (hydroxypropylcellulose) (HPC) 102 % of control
